Structures can show the parent of a compound that is named as a salt. Where two headings read alike, the source gives them in different places.

For data set [1], the system named is Staphylococcus aureus, Streptococcus pneumoniae, Streptococcus pyogenes, Enterococcus faecalis, Enterococcus faecium, Haemophilus influenzae, Moraxella …. The experiment in a line: Antimicrobial Activity Assay: whole-cell MIC by broth microdilution (CLSI M7-A7). It counts as cell-based, Gram-positive and Gram-negative organisms. The note with it: against a strain of at least one of the organisms listed. The method, then:
Whole-cell antimicrobial activity was determined by broth microdilution using the Clinical and Laboratory Standards Institute (CLSI) recommended procedure, Document M7-A7, “Methods for Dilution Susceptibility Tests for Bacteria that Grow Aerobically”. The compounds were tested in serial two-fold dilutions ranging from 0.016 to 16 mcg/ml.
The minimum inhibitory concentration (MIC) was determined as the lowest concentration of compound that inhibited visible growth. A mirror reader was used to assist in determining the MIC endpoint.
Compounds were evaluated against Gram-positive organisms, selected from Staphylococcus aureus, Streptococcus pneumoniae, Streptococcus pyogenes, Enterococcus faecalis and Enterococcus faecium.
In addition, compounds were evaluated against Gram-negative organisms selected from Haemophilus influenzae, Moraxella catarrhalis, Escherichia coli, Pseudomonas aeruginosa, Proteus mirabilis, Enterobacter cloacae, Enterobacter aerogenes, Klebsiella pneumoniae and Stenotrophomonas maltophilia.

Data set [2] concerns N. gonorrhoeae MS11. Briefly: MIC / susceptibility of N. gonorrhoeae MS11 (strain of the mouse model). It counts as cell-based, Neisseria gonorrhoeae.
The test system of data set [3] is Mycobacterium tuberculosis H37Rv. Briefly: Mycobacterium tuberculosis H37Rv Inhibition Assay (resazurin MIC). It counts as cell-based.
Data set [4] has as its system N. gonorrhoeae MS11. Briefly: Mouse model of N. gonorrhoeae vaginal colonization. Format: in vivo, mice. To be noted: for mice in which colonization with N. gonorrhoeae MS11 was eliminated by the end of the study: two studies. As to the method:
A mouse model of N. gonorrhoeae vaginal colonization was performed to evaluate the efficacy of compounds of the present invention. Two independent studies were performed by the same laboratory.
In particular, Example 39 (i.e., (2R)-2-({4-[(3,4-Dihydro-2H-pyrano[2,3-c]pyridin-6-ylmethyl)amino]-1-piperidinyl}methyl)-1,2-dihydro-3H, 8H-2a,5,8a-triazaacenaphthylene-3,8-dione hydrochloride) was tested in this model following a single oral dose or a total of two oral doses administered on the same day. Female mice were primed for colonization using estradiol; trimethoprim sulfate and streptomycin were administered to control commensals. On day 0, mice were inoculated intravaginally with N. gonorrhoeae MS11 (Example 39—MIC 1 μg/ml). Successful colonization was confirmed via vaginal swab culture on days 1 and 2. Single oral doses at 100 mg/kg and 200 mg/kg or a total of two oral doses at 100 mg/kg each of Example 39 were administered on day 2. Vaginal swabs for quantitative culture were collected daily through day 10 (8 days post treatment).

The nature of data set [5]: Estimation of PK parameters from blood samples in mice. Format: in vivo. The note with it: estimated. The method, then: In one study, blood samples were collected terminally from a separate group of mice at 1, 2, 6 and 12 hours post Example 39 administration (n=3 per time point and dose) to allow for estimation of PK parameters.
The subject of another data set is Neisseria gonorrhoeae. Briefly: In vitro MIC by CLSI agar dilution against Neisseria gonorrhoeae isolates. It counts as cell-based. The note with it: for MIC90: Neisseria gonorrhoeae.
[6] abbreviates: H37Rv strain, six days incubation, resazurin fluorescence after 48 hours, read-out: MIC value.
Where [7] appears, read: read-out: MIC value, H37Rv strain, six days incubation, resazurin fluorescence after 48 hours.

In data set [1], `O=c1ccc2ccc(=O)n3c2n1C[C@H]3CN1CCC(NCc2cc3c(cn2)COC3)CC1` [Example 9, (1R)-1-({4-[(1,3-Dihydrofuro[3,4-c]pyridin-6-ylmethyl)amino]-1-piperidinyl}methyl)-1,2-dihydro-4H,9H-imidazo[1,2,3-ij]-1,8-naphthyridine-4,9-dione hydrochloride] gave an MIC of at most 4 µg/mL.

For the compound `O=c1ccc2ncc(=O)n3c2n1C[C@H]3CN1CCC(NCc2cc3c(cn2)OCCC3)CC1` [Example 39, (2R)-2-({4-[(3,4-Dihydro-2H-pyrano[2,3-c]pyridin-6-ylmethyl)amino]-1-piperidinyl}methyl)-1,2-dihydro-3H,8H-2a,5,8a-triazaacenaphthylene-3,8-dione hydrochloride], the MIC in the data set on N. gonorrhoeae MS11 [2] (Neisseria gonorrhoeae, N. gonorrhoeae MS11) is 1 µg/mL; in data set [3] (setting [6]) it was under 2 µg/mL. In addition, the “change in susceptibility of N. gonorrhoeae MS11 colonies recovered from treated mice” value in the data set with N. gonorrhoeae MS11 [2] (compared with stock cultures of the organism) is recorded as “did not demonstrate any change in susceptibility”. Further, in the data set on N. gonorrhoeae MS11 [4] (first study, one mouse in each dose group, not observed in the follow-up study), the “course of colonization after initial clearance” value was “regrowth to a high number of organisms by the end of the study”. The “mice in which colonization with N. gonorrhoeae MS11 was eliminated by the end of the study” value in the data set with N. gonorrhoeae MS11 [4] (single oral dose of 100 mg/kg on day 2) is listed as 70-80%; in the data set on N. gonorrhoeae MS11 [4] (single oral dose of 200 mg/kg on day 2), 90-100%; in the data set on N. gonorrhoeae MS11 [4] (two 100 mg/kg oral doses administered on the same day), 100%. For the same compound, the fAUC0-24 in data set [5] (single oral dose of 100 mg/kg) is 8000 ng·h/mL; in data set [5] (single oral dose of 200 mg/kg) it was 22000 ng·h/mL; in data set [5] (two 100 mg/kg oral doses on the same day), 16000 ng·h/mL. Moreover, the “MIC90 fold higher than that of ceftriaxone” value in the data set on Neisseria gonorrhoeae (30 isolates of N. gonorrhoeae) is reported as “at least 16 fold”. The “MIC90 fold lower than ciprofloxacin” value with Neisseria gonorrhoeae (30 isolates of N. gonorrhoeae) is “at least 8 fold”. Also, the MIC90 with Neisseria gonorrhoeae (30 isolates of N. gonorrhoeae collected 2003 through 2007, read-out: MIC90 (MIC which inhibits 90% of the isolates tested)) was 0.5 µg/mL; with Neisseria gonorrhoeae (second study, all 145 isolates of N. gonorrhoeae, majority collected in 2013, read-out: MIC90), 0.5 µg/mL; in the data set on Neisseria gonorrhoeae (second study, subset of 37 ciprofloxacin-nonsusceptible isolates, read-out: MIC90), 1 µg/mL. Moreover, in the data set on Neisseria gonorrhoeae (against the 9 ciprofloxacin-resistant N. gonorrhoeae tested), the “modal value (MIC)” value is reported as “remained unchanged”.

For the compound `O=C1CSc2ccc(CNC3CCN(C[C@@H]4Cn5c(=O)ccc6ncc(=O)n4c65)CC3)nc2N1` [Example 29, (2R)-2-[(4-{[(3-Oxo-3,4-dihydro-2H-pyrido[3,2-b][1,4]thiazin-6-yl)methyl]amino}-1-piperidinyl)methyl]-1,2-dihydro-3H,8H-2a,5,8a-triazaacenaphthylene-3,8-dione hydrochloride], the MIC in data set [3] (setting [6]) is under 2 µg/mL.

As to `O=c1cnc2ccc(=O)n3c2n1C[C@H]3CN1CCC(NCc2ccc3c(c2)OCCO3)CC1` [Example 44, (1R)-1-({4-[(2,3-Dihydro-1,4-benzodioxin-6-ylmethyl)amino]-1-piperidinyl}methyl)-1,2-dihydro-3H,8H-2a,5,8a-triazaacenaphthylene-3,8-dione hydrochloride], the MIC in data set [3] (setting [7]) was under 2 µg/mL.

With `O=c1ccc2ncc(=O)n3c2n1C[C@H]3CN1CCC(NCc2cc3c(cn2)OCS3)CC1` [Example 16A, (2R)-2-({4-[([1,3]Oxathiolo[5,4-c]pyridin-6-ylmethyl)amino]-1-piperidinyl}methyl)-1,2-dihydro-3H,8H-2a,5,8a-triazaacenaphthylene-3,8-dione hydrochloride], the MIC in data set [3] (144 h, read-out: MIC value, H37Rv strain, six days incubation, resazurin fluorescence after 48 hours) is under 2 µg/mL.

On to `O=c1ccc2ccc(=O)n3c2n1C[C@H]3CN1CCC(NCc2nc3cccc(F)c3[nH]2)CC1` [Example 46, (1R)-1-[(4-{[(4-Fluoro-1H-benzimidazol-2-yl)methyl]amino}-1-piperidinyl)methyl]-1,2-dihydro-4H,9H-imidazo[1,2,3-ij]-1,8-naphthyridine-4,9-dione dihydrochloride], for which the MIC in data set [3] (setting [7]) is under 2 µg/mL.

For the compound `O=c1ccc2ncc(=O)n3c2n1C[C@H]3CN1CCC(NCc2cc3c(cn2)SCO3)CC1` [Example 28, (2R)-2-({4-[([1,3]Oxathiolo[4,5-c]pyridin-6-ylmethyl)amino]-1-piperidinyl}methyl)-1,2-dihydro-3H,8H-2a,5,8a-triazaacenaphthylene-3,8-dione hydrochloride], the MIC in data set [3] (setting [6]) was under 2 µg/mL.

The values are drawn from US10702521B2, “Methods for treating neisseria gonorrhoeae infection with substituted 1,2-dihydro-2A,5,8A-triazaacenaphthylene-3,8-diones” (priority 2014, dated 2020).
